Reference: ChEMBL document CHEMBL1649153, “Population pharmacokinetics of high-dose, prolonged-infusion cefepime in adult critically ill patients with ventilator-associated pneumonia” (Antimicrob Agents Chemother, 2009)

How the values were obtained:
Serum = assay: Serum creatinine level in critically ill patient with ventilator-associated pneumoniae at […] administered as 3 hr infusion every 8 hrs by HPLC; format: ADME, organism-based; conditions: human, in vivo, iv
Homo sapiens = assay: Toxicity in critically ill patient with ventilator-associated pneumoniae assessed as adverse effects at […] administered as 3 hr infusion every 8 hrs by HPLC; format: organism-based; conditions: in vivo, iv

CO/N=C(\C(=O)N[C@@H]1C(=O)N2C(C(=O)[O-])=C(C[N+]3(C)CCCC3)CS[C@H]12)c1csc(N)n1 [CEFEPIME]
serum creatinine (Serum): 0.8 mg/dL | Activity (Homo sapiens): Non-toxic
